Results reported in US20040023972A1, “Use of substituted imidazo[1,2-a]-pyridin-, -pyrimidin-and-pyrazin-3-yl-amine derivatives in the preparation of medicaments for inhibiting NOS” (Gruenenthal GmbH, priority 2000, published 2004).

Target: T1, NO synthase (Rattus norvegicus, UniProt P29476)
T1 construct: the supernatant was then removed by decantation and frozen in portions at −80° C; from tissue; host or cells: rat cerebellum, 20,000 g supernatant of homogenate
Assay: HTS-NOS assay (NOS assay): conversion of radioactive arginine, cation-exchanger filter plate
Format: biochemical
Details: for inhibition at 10 µM: read-out: HTS-NOS assay: % inhibition (10 μM)
Procedure, shortened: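 Percent inhibition was derived by comparing remaining radioactive arginine with compound-free controls. Arginine retained on phosphate cation-exchanger filters was counted after citrulline washout, following a 5-60 min room-temperature (25 °C) reaction of labelled arginine, NADPH-containing medium and rat cerebellar homogenate supernatant.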

Structure (SMILES) | inhibition at 10 µM | HTS-NOS assay: % inhibition (10 μM)
CCCCN(C(C)=O)c1c(-c2ccc(F)cc2Cl)nc2ccccn12 [Example 246, N-butyl-N-[2-(2-chloro-4-fluoro-phenyl)-imidazo[1,2-a]pyridin-3-yl]-acetamide] | 55% | 
CC(=O)N(c1c(-c2cc(C)c(C)o2)nc2ccccn12)C(C)(C)CC(C)(C)C [Example 202, N-[2-(4,5-dimethyl-furan-2-yl)-imidazo[1,2-a]pyridin-3-yl]-N-(1,1,3,3-tetramethyl-butyl)-acetamide] | 57% | 
Cc1ccn2c(NC(C)(C)CC(C)(C)C)c(-c3cccc4ccccc34)nc2c1 [Example 63, (7-Methyl-2-naphthalen-1-yl-imidazo[1,2-a]-pyridin-3-yl)-(1,1,3,3-tetramethyl-butyl)-amine] | 52% | 
CC(=O)N(c1c(-c2ccccc2C(F)(F)F)nc2cc(C)ccn12)C1CCCCC1 [Example 164, N-cyclohexyl-N-[7-methyl-2-(2-trifluorO-methyl-phenyl)-imidazo[1,2-a]pyridin-3-yl]-acetamide] |  | 61%
CC(=O)N(c1c(C)cccc1C)c1c(-c2cc3ccccc3o2)nc2cc(C)ccn12 [Example 239, N-(2-benzofuran-2-yl-7-methyl-imidazo[1,2-a]pyridin-3-yl)-N-(2,6-dimethylphenyl)-acetamide] | 52% | 
COc1cc(-c2nc3ncccn3c2N(C(C)=O)C2CCCCC2)ccc1OC(C)=O [Example 270, acetic acid 4-[3-(acetyl-cyclohexyl-amino)-imidazo[1,2-a]pyrimidin-2-yl]-2-methoxy-phenyl ester] | 52% | 
COc1ccccc1-c1nc2cc(C)ccn2c1N(C(C)=O)c1c(C)cccc1C [Example 184, N-(2,6-dimethyl-phenyl)-N-[2-(2-methoxy-phenyl)-7-methyl-imidazo[1,2-a]-pyridin-3-yl]-acetamide] | 51% | 
COc1ccc(-c2nc3cc(C)ccn3c2NC(C)(C)CC(C)(C)C)cc1OC [Example 6, [2-(3,4-Dimethoxy-phenyl)-7-methyl-imidazo[1,2-a]pyridin-3-yl]-(1,1,3,3-tetramethyl-butyl)-amine] | 53% | 
CC(=O)OCc1ccc(-c2nc3cccc(C)n3c2N(C(C)=O)C2CCCCC2)o1 [Example 260, acetic acid 5-[3-(acetyl-cyclohexyl-amino)-5-methyl-imidazo[1,2-a]pyridin-2-yl]-furan-2-yl methyl ester] |  | 51%
CCc1ccn2c(Nc3cccc(Cl)c3)c(-c3cc4ccccc4o3)nc2c1 [Example 319, (2-Benzofuran-2-yl-7-ethyl-imidazo[1,2-a]-pyridin-3-yl)-(3-chloro-phenyl)-amine] | 53% | 
Cc1ccc2nc(-c3ccncc3)c(NC(C)(C)CC(C)(C)C)n2c1 [Example 124, (6-Methyl-2-pyridin-4-yl-imidazo[1,2-a]-pyridin-3-yl)-(1,1,3,3-tetramethyl-butyl)-amine] | 68% | 
Cc1ccn2c(NC(C)(C)C)c(-c3ccco3)nc2c1 [Example 68, Tert-butyl-(2-furan-2-yl-7-methyl-imidazo[1,2-a]pyridin-3-yl)-amine] | 57% | 
Cc1cc(C)n2c(Nc3c(C)cccc3C)c(-c3ccccc3C)nc2c1 [Example 32, (2,6-Dimethyl-phenyl)-(5,7-dimethyl-2-o-tolyl-imidazo[1,2-a]pyridin-3-yl)-amine] | 59% | 
CSc1ccc(-c2nc3ncccn3c2N(C(C)=O)C(C)(C)C)s1 [Example 221, N-tert-butyl-N-[2-(5-methylsulfanyl-thiophen-2-yl)-imidazo[1,2-a]pyrimidin-3-yl]-acetamide] | 54% | 
[C-]#[N+]CCCCCCNc1c(-c2ccccn2)nc2cc(C)ccn12 [Example 107, Methylidyne-[6-(7-methyl-2-pyridin-2-yl-imidazo[1,2-a]pyridin-3-ylamino)-hexyl]-ammonium] |  | 50%
CC(=O)OCc1ccc(-c2nc3cc(C)cc(C)n3c2NC2CCCCC2)o1 [Example 52, Acetic acid 5-(3-cyclohexylamino-5,7-dimethyl-imidazo[1,2-a]pyridin-2-yl)-furan-2-yl methyl ester] |  | 64%
CC(=O)N(c1c(C)cccc1C)c1c(-c2cccc(Cl)c2Cl)nc2cc(C)ccn12 [Example 160, N-[2-(2,3-dichloro-phenyl)-7-methyl-imidazo[1,2-a]pyridin-3-yl]-N-(2,6-dimethyl-phenyl)-acetamide] | 55% | 
CC(=O)N(c1c(C)cccc1C)c1c(-c2cccc(O)c2)nc2nc(C)cc(C)n12 [Example 272, N-(2,6-dimethyl-phenyl)-N-[2-(3-hydroxy-phenyl)-5,7-dimethyl-imidazo[1,2-a]-pyrimidin-3-yl]-acetamide] | 54% | 
COC(=O)CNc1c(C)nc2cc(C)ccn12 [Example 18, (2,7-Dimethyl-imidazo[1,2-a]pyridin-3-ylamino)-acetic acid methyl ester] | 50% | 

Structure (SMILES) | inhibition at 10 µM | HTS-NOS assay: % inhibition (10 μM)
Cc1cc(C)n2c(NC(C)(C)CC(C)(C)C)c(-c3ccc(Cl)cc3Cl)nc2c1 [Example 89, [2-(2,4-Dichlorophenyl)-5,7-dimethyl-imidazo[1,2-a]pyridin-3-yl]-(1,1,3,3-tetramethyl-butyl)-amine] | 68% | 
Cc1ccn2c(NC(C)(C)C)c(C3CCCCC3)nc2c1 [Example 93, Tert-butyl-(2-cyclohexyl-7-methyl-imidazo[1,2-a]pyridin-3-yl)-amine] | 52% | 
Cc1ccn2c(NC(C)(C)CC(C)(C)C)c(-c3cccnc3)nc2n1 [Example 126, (7-Methyl-2-pyridin-3-yl-imidazo[1,2-a]-pyrimidin-3-yl)-(1,1,3,3-tetramethyl-butyl)-amine] | 50% | 
CC(=O)N(c1c(-c2ccc(C(=O)O)o2)nc2ccc(C)cn12)C(C)(C)CC(C)(C)C [Example 282, 5-{3-[acetyl-(1,1,3,3-tetramethyl-butyl)-amino]-6-methyl-imidazo[1,2-a]pyridin-2-yl}-furan-2-carboxylic acid] | 51% | 
CC(=O)N(c1c(-c2ccc(C3OCCO3)o2)nc2cc(C)ccn12)C(C)(C)CC(C)(C)C [Example 196, N-[2-(5-[1,3]dioxolan-2-yl-furan-2-yl)-7-methyl-imidazo[1,2-a]pyridin-3-yl]-N-(1,1,3,3-tetramethyl-butyl)-acetamide] | 54% | 
CC(=O)N(c1c(-c2cccnc2)nc2cc(C)cc(C)n12)C1CCCCC1 [Example 192, N-cyclohexyl-N-(5,7-dimethyl-2-pyridin-3-yl-imidazo[1,2-a]pyridin-3-yl)-acetamide] | 72% | 
Cc1cc(C)n2c(NC3CCCCC3)c(-c3ccc([N+](=O)[O-])o3)nc2c1 [Example 104, Cyclohexyl-[5,7-dimethyl-2-(5-nitro-furan-2-yl)-imidazo[1,2-a]pyridin-3-yl]-amine] | 63% | 
CCc1ccn2c(Nc3ccc(F)c(Cl)c3)c(-c3cc(C)c(C)o3)nc2c1 [Example 322, (3-Chloro-4-fluorophenyl)-[2-(4,5-dimethyl-furan-2-yl)-7-ethyl-imidazo[1,2-a]pyridin-3-yl]-amine] | 49% | 
Cc1ccn2c(Nc3c(C)cccc3C)c(-c3ccc(CO)o3)nc2n1 [Example 132, {5-[3-(2,6-Dimethyl-phenylamino)-7-methyl-imidazo[1,2-a]pyrimidin-2-yl]-furan-2-yl}-methanol] | 52% | 
[C-]#[N+]CCCCCCNc1c(-c2ccc(-c3ccccc3Cl)o2)nc2cccc(C)n12 [Example 103, (6-{2-[5-(2-Chlorophenyl)-furan-2-yl]-5-methyl-imidazo[1,2-a]pyridin-3-ylamino)-hexyl)-methylidyne-ammonium] |  | 50%
CC(=O)N(c1c(-c2ccc(C(=O)O)s2)nc2cnccn12)C(C)(C)C [Example 153, 5-[3-(acetyl-tert-butyl-amino)-imidazo[1,2-a]pyrazin-2-yl]-thiophene-2-carboxylic acid] | 78% | 
Cc1ccn2c(Nc3c(C)cccc3C)c(-c3cccc(Cl)c3Cl)nc2c1 [Example 47, [2-(2,3-Dichloro-phenyl)-7-methyl-imidazo[1,2-a]pyridin-3-yl]-(2,6-dimethyl-phenyl)-amine] | 69% | 
COc1ccccc1-c1nc2cc(C)ccn2c1N(C(C)=O)C(C)(C)CC(C)(C)C [Example 199, N-[2-(2-methoxy-phenyl)-7-methyl-imidazo[1,2-a]pyridin-3-yl]-N-(1,1,3,3-tetramethyl-butyl)-acetamide] | 57% | 
CC(=O)N(c1c(-c2cc3ccccc3o2)nc2cc(C)cc(C)n12)C(C)(C)CC(C)(C)C [Example 217, N-(2-benzofuran-2-yl-5,7-dimethyl-imidazo[1,2-a]pyridin-3-yl)-N-(1,1,3,3-tetramethyl-butyl)-acetamide] | 63% | 
CC(=O)N(c1c(-c2cccnc2)nc2cc(C)ccn12)C(C)(C)C [Example 144, N-tert-butyl-N-(7-methyl-2-pyridin-3-yl-imidazo[1,2-a]pyridin-3-yl)-acetamide] | 59% | 
CCCCNc1c(C2CCCCC2)nc2cc(C)cc(C)n12 [Example 37, Butyl-(2-cyclohexyl-5,7-dimethyl-imidazo[1,2-a]pyridin-3-yl)-amine] | 58% | 
CCc1ccn2c(Nc3ccc(F)c(Cl)c3)c(-c3cc4ccccc4o3)nc2c1 [Example 318, (2-Benzofuran-2-yl-7-ethyl-imidazo[1,2-a]-pyridin-3-yl)-(3-chloro-4-fluoro-phenyl)-amine] | 52% | 
CC(=O)N(c1c(-c2ccco2)nc2c(C(=O)O)cccn12)C(C)(C)CC(C)(C)C [Example 267, 3-[acetyl-(1,1,3,3-tetramethyl-butyl)-amino]-2-furan-2-yl-imidazo[1,2-a]pyridine-8-carboxylic acid] | 62% | 
Cc1ccc2nc(-c3cccnc3)c(NC(C)(C)C)n2c1 [Example 125, Tert-butyl-(6-methyl-2-pyridin-3-yl-imidazo[1,2-a]pyridin-3-yl)-amine] | 51% | 
